ChEMBL document CHEMBL6092215, “A Prostate-Specific Membrane Antigen-Targeting Small Molecule-Drug Conjugate Strategy to Overcome the Hematological Toxicity of Olaparib” (J Med Chem, 2024)

Experiments:
[1] = Antiproliferative activity against PSMA negative human RWPE-1 cells assessed as effect on cell viability incubated for 72 hrs by MTT assay; format: toxicity, cell-based; details: RWPE-1 cells (PSMA negative)
[2] = test system: LNCaP; experiment: Antiproliferative activity against human LNCaP cells with high PSMA expression assessed as effect on cell viability incubated for 72 hrs by MTT assay; format: functional, cell-based
[3] = test system: CWR22R; experiment: Antiproliferative activity against human 22Rv1 cells with high PSMA expression assessed as effect on cell viability incubated for 72 hrs by MTT assay; format: functional, cell-based; details: 22Rv1, 72 h
[4] = test system: PC-3; experiment: Antiproliferative activity against PSMA negative human PC-3 cells assessed as effect on cell viability incubated for 72 hrs by MTT assay; format: functional

Compound | IC50 [2] [µM] | CC50 at 72 h [1] [µM] | IC50 [3] [µM] | CC50 [4] [µM]
O=C(O)CC[C@H](NC(=O)N[C@@H](CCCCNC(=O)CCNC(=O)N1CCN(C(=O)c2cc(Cc3n[nH]c(=O)c4ccccc34)ccc2F)CC1)C(=O)O)C(=O)O | 273 | > 1000 | 327 | > 1000
CC[C@@H](C)[C@H](NC(=O)CCC(=O)NCCCC[C@H](NC(=O)N[C@@H](CCC(=O)O)C(=O)O)C(=O)O)C(=O)N1CCN(C(=O)c2cc(Cc3n[nH]c(=O)c4ccccc34)ccc2F)CC1 | 135 | > 1000 | 126 | > 1000
O=C(O)CC[C@H](NC(=O)N[C@@H](CCCCNC(=O)CCCNC(=O)CCCCCCC(=O)N1CCN(C(=O)c2cc(Cc3n[nH]c(=O)c4ccccc34)ccc2F)CC1)C(=O)O)C(=O)O | 238 | > 1000 | 208 | > 1000
O=C(O)CC[C@H](NC(=O)N[C@@H](CCCCNC(=O)CCSSCCC(=O)N1CCN(C(=O)c2cc(Cc3n[nH]c(=O)c4ccccc34)ccc2F)CC1)C(=O)O)C(=O)O | 259 | > 1000 | 432 | > 1000
O=C(O)CC[C@H](NC(=O)N[C@@H](CCCCNC(=O)CCCC(=O)N1CCN(C(=O)c2cc(Cc3n[nH]c(=O)c4ccccc34)ccc2F)CC1)C(=O)O)C(=O)O | 96.6 | > 1000 | 139 | > 1000
O=C(O)CC[C@H](NC(=O)N[C@@H](CCCCNC(=O)N1CCN(C(=O)c2cc(Cc3n[nH]c(=O)c4ccccc34)ccc2F)CC1)C(=O)O)C(=O)O | 251 | > 1000 | 314 | > 1000
O=C(O)CC[C@H](NC(=O)N[C@@H](CCCCNC(=O)CCC(=O)N[C@@H](Cc1ccccc1)C(=O)N1CCN(C(=O)c2cc(Cc3n[nH]c(=O)c4ccccc34)ccc2F)CC1)C(=O)O)C(=O)O | 152 | > 1000 | 132 | > 1000
O=C(O)CC[C@H](NC(=O)N[C@@H](CCCCNC(=O)CCC(=O)N[C@@H](CO)C(=O)N1CCN(C(=O)c2cc(Cc3n[nH]c(=O)c4ccccc34)ccc2F)CC1)C(=O)O)C(=O)O | 202 | > 1000 | 209 | > 1000
CSCC[C@H](NC(=O)CCC(=O)NCCCC[C@H](NC(=O)N[C@@H](CCC(=O)O)C(=O)O)C(=O)O)C(=O)N1CCN(C(=O)c2cc(Cc3n[nH]c(=O)c4ccccc34)ccc2F)CC1 | 190 | > 1000 | 175 | > 1000
O=C(O)CC[C@H](NC(=O)N[C@@H](CCCCNC(=O)CCN1CCN(C(=O)c2cc(Cc3n[nH]c(=O)c4ccccc34)ccc2F)CC1)C(=O)O)C(=O)O | 284 | > 1000 | 286 | > 1000
CC(C)C[C@H](NC(=O)CCC(=O)NCCCC[C@H](NC(=O)N[C@@H](CCC(=O)O)C(=O)O)C(=O)O)C(=O)N1CCN(C(=O)c2cc(Cc3n[nH]c(=O)c4ccccc34)ccc2F)CC1 | 130 | > 1000 | 113 | > 1000
O=C(O)CC[C@H](NC(=O)N[C@@H](CCCCNC(=O)CCCCCCC(=O)N1CCN(C(=O)c2cc(Cc3n[nH]c(=O)c4ccccc34)ccc2F)CC1)C(=O)O)C(=O)O | 99.9 | > 1000 | 137 | > 1000

More lines, in order of falling IC50 [2], values ahead:

IC50 [2] [µM] | Compound | CC50 at 72 h [1] [µM] | IC50 [3] [µM] | CC50 [4] [µM]
300 | O=C(O)CC[C@H](NC(=O)N[C@@H](CCCCNC(=O)CCCNC(=O)N1CCN(C(=O)c2cc(Cc3n[nH]c(=O)c4ccccc34)ccc2F)CC1)C(=O)O)C(=O)O | > 1000 | 337 | > 1000
283 | O=C(O)CC[C@H](NC(=O)N[C@@H](CCCCNC(=O)c1cc(Cc2n[nH]c(=O)c3ccccc23)ccc1F)C(=O)O)C(=O)O | > 1000 | 455 | > 1000
242 | NC(=O)NCCC[C@H](NC(=O)CCC(=O)NCCCC[C@H](NC(=O)N[C@@H](CCC(=O)O)C(=O)O)C(=O)O)C(=O)N1CCN(C(=O)c2cc(Cc3n[nH]c(=O)c4ccccc34)ccc2F)CC1 | > 1000 | 265 | > 1000
182 | O=C(O)CC[C@H](NC(=O)N[C@@H](CCCCNC(=O)CCOC(=O)N1CCN(C(=O)c2cc(Cc3n[nH]c(=O)c4ccccc34)ccc2F)CC1)C(=O)O)C(=O)O | > 1000 | 289 | > 1000
173 | O=C(O)CC[C@H](NC(=O)N[C@@H](CCCCNC(=O)CCC(=O)N[C@@H](C(=O)N1CCN(C(=O)c2cc(Cc3n[nH]c(=O)c4ccccc34)ccc2F)CC1)c1ccccc1)C(=O)O)C(=O)O | > 1000 | 162 | > 1000
162 | O=C(O)CC[C@H](NC(=O)N[C@@H](CCCCNC(=O)CCC(=O)NCCCC(=O)N1CCN(C(=O)c2cc(Cc3n[nH]c(=O)c4ccccc34)ccc2F)CC1)C(=O)O)C(=O)O | > 1000 | 134 | > 1000
147 | O=C(O)CC[C@H](NC(=O)N[C@@H](CCCCNC(=O)CCC(=O)NCC(=O)N1CCN(C(=O)c2cc(Cc3n[nH]c(=O)c4ccccc34)ccc2F)CC1)C(=O)O)C(=O)O | > 1000 | 126 | > 1000
136 | CN(CC(=O)N1CCN(C(=O)c2cc(Cc3n[nH]c(=O)c4ccccc34)ccc2F)CC1)C(=O)CCC(=O)NCCCC[C@H](NC(=O)N[C@@H](CCC(=O)O)C(=O)O)C(=O)O | > 1000 | 129 | > 1000
129 | C[C@H](NC(=O)CCC(=O)NCCCC[C@H](NC(=O)N[C@@H](CCC(=O)O)C(=O)O)C(=O)O)C(=O)N1CCN(C(=O)c2cc(Cc3n[nH]c(=O)c4ccccc34)ccc2F)CC1 | > 1000 | 133 | > 1000
121 | CC(C)[C@@H](NC(=O)CCC(=O)NCCCC[C@H](NC(=O)N[C@@H](CCC(=O)O)C(=O)O)C(=O)O)C(=O)N1CCN(C(=O)c2cc(Cc3n[nH]c(=O)c4ccccc34)ccc2F)CC1 | > 1000 | 128 | > 1000
111 | CC(C)[C@H](NC(=O)CCC(=O)NCCCC[C@H](NC(=O)N[C@@H](CCC(=O)O)C(=O)O)C(=O)O)C(=O)N1CCN(C(=O)c2cc(Cc3n[nH]c(=O)c4ccccc34)ccc2F)CC1 | > 1000 | 122 | > 1000
